Data published in patent US8466089B2, “Pyrazole compounds, process for their production and herbicides containing them” (Ishihara Sangyo Kaisha, Ltd., priority 2008, dated 2013).
Read-outs that look alike come from different tables or passages of the source.

What was measured:
Assay type in all cases: in vivo
[1] = tested on: velvetleaf (Abutilon theophrasti MEDIC.), guineagrass (Panicum maximum Jacq.), green foxtail (Setaria viridis L.); test: Test Example 4, foliar treatment, herbicidal effect versus Reference Compounds; conditions: 3.5 to 15 g/ha, 14th to 28th day after application, test written in present tense
From the text: (§1) Upland field soil is put into a 1/1,000,000 hectare pot, and seeds of various plants are sown. When the respective plants reach predetermined leaf stage ((1) velvetleaf (Abutilon theophrasti MEDIC.), (2) guineagrass (Panicum maximum Jacq.), (3) green foxtail (Setaria viridis L.), and (4) corn (Zea mays L.), a wettable powder of compound No. 2-1 of the above-mentioned present invention, an emulsifiable concentrate of the following Reference Compound 1 and a wettable powder of the following Reference Compound 2, prepared in accordance with a conventional preparation method, are weighed so that the active ingredients become the prescribed amounts 3.5 to 15 g/ha, and diluted with water in an amount corresponding to 300 liter per 1 hectare (containing 0.5 vol % of an agricultural spreader (MSO concentrate, manufactured by Cognis Corporation). The spray solutions thus prepared are applied for foliar treatment by a small sprayer.

corn (Zea mays L.) = test: Test Example 4, foliar treatment, safety to crop plants versus Reference Compounds; conditions: 3.5 to 15 g/ha, 14th to 28th day after application, test written in present tense
From the text: as §1

[2] = tested on: sorgo (Sorghum bicolor Moench) (var.: Lucky Sorgo); test: Test Example 6, soil column downward movement, sorgo bioassay; conditions: 14th day after sowing
Experimental: Soil (sterilized soil:sand=3:1) was packed (4 L) into a column (9.5 cm in diameter×40 cm in height, application area: 0.007 m^2), and tap water was dropped from above by a Peristaltic pump before application of the herbicide for the purpose of maintaining the soil moisture to be uniform. Then, 10 mL of a spray solution prepared so that each agent (Compound No. 2-1, the above Reference Compounds 1 and 2) would be at a concentration corresponding to 250 g/ha was dropwise applied by a pipette. After application, water was dropped again at a rate of 400 mL/hr for about 3 hours by means of a Peristaltic pump. After the dropping, the column was left to stand for 1 day, and then the column was vertically evenly divided and seeds of sorgo (Sorghum bicolor Moench) (var.: Lucky Sorgo) were sown in a row. On the 14th day after sowing, the state of growth of the plant was visually observed at 3 cm intervals from the application point of the agent, whereby the germination and the degree of growth were evaluated by a growth inhibition rate (%) of 0 (equivalent to the non-treated area) to 100% (complete kill) to obtain the results in Table 17.
From the above results, the growth inhibition rates of Reference Compounds No. 1 and No. 2 are observed in depths deeper than that of Compound No. 2-1. […] Whereas, Compound No. 2-1 stayed at a shallow portion of soil (in a layer of from 0 to 9 cm).

CCn1ncc(C(=O)c2ccc(S(C)(=O)=O)c(OCCOC)c2C)c1OC(C)OC(=O)OC (stereo not drawn) [Compound No. 2-1, 1-(1-Ethyl-4-(3-(2-methoxyethoxy)-2-methyl-4-(methylsulfonyl)benzoyl)-1H-pyrazol-5-yloxy)ethyl methyl carbonate]
herbicidal effect as compared to Reference Compounds [1]: superior herbicidal effects
safety to crop plants as compared to Reference Compounds (corn (Zea mays L.)): excellent safety to crop plants
inhibition at 250 g/ha ([2]; depth 0-3 cm, read-out: Growth inhibition rate (%) against sorgo, Depth (cm) from the applied surface 0-3): 70%
inhibition at 250 g/ha ([2]; depth 3-6 cm, read-out: Growth inhibition rate (%) against sorgo, Depth (cm) from the applied surface 3-6): 19%
inhibition at 250 g/ha ([2]; depth 6-9 cm, read-out: Growth inhibition rate (%) against sorgo, Depth (cm) from the applied surface 6-9): 10%
inhibition at 250 g/ha ([2]; depth 9-12 cm, read-out: Growth inhibition rate (%) against sorgo, Depth (cm) from the applied surface 9-12): 5%
inhibition at 250 g/ha ([2]; depth 12-15 cm, read-out: Growth inhibition rate (%) against sorgo, Depth (cm) from the applied surface 12-15): 3%
inhibition at 250 g/ha ([2]; depth 15-18 cm, read-out: Growth inhibition rate (%) against sorgo, Depth (cm) from the applied surface 15-18): 3%
inhibition at 250 g/ha ([2]; depth 18-21 cm, read-out: Growth inhibition rate (%) against sorgo, Depth (cm) from the applied surface 18-21): 2%
inhibition at 250 g/ha ([2]; depth 21-24 cm, read-out: Growth inhibition rate (%) against sorgo, Depth (cm) from the applied surface 21-24): 1%
inhibition at 250 g/ha ([2]; depth 24-27 cm, read-out: Growth inhibition rate (%) against sorgo, Depth (cm) from the applied surface 24-27): 0%
inhibition at 250 g/ha ([2]; depth 27-30 cm, read-out: Growth inhibition rate (%) against sorgo, Depth (cm) from the applied surface 27-30): 0%
